Molecules are shown by their SMILES. In brackets after ≈: the same amount, converted by molar mass.

The IC50 is the concentration needed to halve the response being measured. The low end stands for greater potency, the high end for weaker potency.

The target in test [1] is AMPA type receptors. Put plainly: ³H-AMPA binding (Test 1). Particulars: displacement of 50% of specific binding of ³H-AMPA (5 nM); rat cerebral cortical membrane homogenate, 0°C, 30 min. Here is the method:
(§1) The pharmacological properties of the compounds of the present invention can be illustrated by determining their capability for displacing radioactively labelled 2-amino3-hydroxy-5-methyl-4-isoxazolepropionic acid (AMPA) from the AMPA type receptors.
The displacement activity of the compounds may be shown by determining the IC₅₀ value which represents the concentration (µg/ml) which causes a displacement of 50% of the specific binding of ³H-AMPA.
500 µl of thawed rat cerebral cortical membrane homogenate in Tris-HCl (30 mM), CaCl₂ (2.5 mM) and KSCN (1OO mM) pH 7.1 were incubated at 0°C for 30 min. with 25 µl ³H-AMPA (5 nM final concentration) and the test compound and buffer. Nonspecific binding was determined by incubation with L-glutamic acid (600 µM final concentration). The binding reaction was terminated by adding 5 ml of ice-cold buffer followed by filtration through Whatman GF/C glass fibre filters and 2x5 ml wash with ice-cold buffer. Bound radioactivity was measured by scintillation counting. IC₅₀ was determined by Hill analysis of at least four concentrations of test compound.

For test [2], the system named is quisqualic acid stimulated spreading depression in chicken retina. In words: Spreading depression (Test 2). The class given is cell-based. Particulars: Gallus gallus; concentration producing 50% maximal inhibition of quisqualic acid stimulated spreading depression; chick retina, quisqualate 1 µg/ml, 26°C. How it is done:
as §1
The antagonism is measured by determining the IC₅₀ value which represents the concentration which produces a 50% maximal inhibition of quisqualic acid stimulated spreading depression in chicken retina.
Spreading depression (Test 2)
Chicks (3-10 days old) were decapitated, the eyes enucleated and sectioned along the equatorial plane. After removal of the anterior chamber and the vitreous body, the posterior chamber of each eye was placed in a small petri dish containing a physiological saline solution (P.S.S.) of the following composition (mM) NaCl (100), KCl (6.0), CaCl₂ (1.0), MgS0₄ (1.0), NaHCO₃ (30), NaH₂PO₄ (1.0), glucose (20).
The solution was saturated with 100% O₂ and maintained at 26°C.
The eyes are initially incubated in normal P.S.S. for 15-30 min. and then transferred to P.S.S. containing KCl (20 mM), NMDLA (30 µg/ml), quisqualate (1 µg/ml), kainate (1 µg/ml), or glycin (200 µg/ml). In these "stimulating solutions" S.D.s start spontaneously usually from the edge of the retina, and can be easily observed by eye. The time taken for an S.D. to start in each eye is measured.
After a further 15 minutes of incubation in normal P.S.S. the eyes are transferred to normal P.S.S. containing the test compound and incubated for 15 minutes. Thereafter the eyes are transferred to a "stimulating solution" containing the same concentration of the test compound. The time taken for an S.D. to start in each eye is again measured. The eyes are then placed back in normal P.S.S. and after 15 minutes the time taken for S.D. to start is again measured, in order to assess the degree of recovery from any drug effects.
An increase in the time taken for S.D. to start of 30 seconds more than the control time is considered 100% inhibition of S.D. The drug effects therefore are expressed as the percentage maximum response obtained for a given dose. The test value can be quoted therefore as the concentration (µg/ml) of test substance which produces a 50% maximal inhibition (IC₅₀).

With `NC(=O)c1ccc2c(c1)c([N+](=O)[O-])cc1[nH]c(=O)c(=O)[nH]c12` [Example 14, 8-Carbamoyl-6-nitrobenzo[f]quinoxaline-2,3(1H,4H)-dione], the “Test 1 IC50” value in test [1] turned out to be 0.07 µg/mL. In test [2], the midpoint of inhibition, the IC50, lay at 0.41 µg/mL (≈ 1.37 µM).
Turning to `N#Cc1cc2[nH]c(=O)c(=O)[nH]c2c2ccc(S(N)(=O)=O)cc12` [Example 11, 6-Cyano-8-sulfamoylbenzo[f]quinoxaline-2,3(1H,4H)-dione], the “Test 1 IC50” value in test [1] came to 0.17 µg/mL. Further, the IC50 in test [2] amounted to 0.54 µg/mL (≈ 1.71 µM).
For `NC(=O)CNS(=O)(=O)c1ccc2c(c1)c([N+](=O)[O-])cc1[nH]c(=O)c(=O)[nH]c12` [Example 21, 8-Carbamoylmethylsulfamoyl-6-nitrobenzo[f]quinoxaline-2,3(1H,4H)-dione] the same measures were 0.16 µg/mL and 1 µg/mL (≈ 2.54 µM).
With `O=c1[nH]c2cc([N+](=O)[O-])c3c(C(F)(F)F)cccc3c2[nH]c1=O` [Example 8, 6-Nitro-7-trifluoromethylbenzo[f]quinoxaline-2,3-(1H,4H)-dione], the “Test 1 IC50” value in test [1] was found to be 0.55 µg/mL. Further, the IC50 in test [2] amounted to 1.3 µg/mL (≈ 4 µM).

Source of the values: EP0511152A2, “Quinoxaline compounds, their preparation and use” (NOVO NORDISK A/S, priority 1991, dated 1992).
